Laboratory results taken from US9167818B2, “Active compounds combinations comprising prothioconazole and fluxapyroxad” (BAYER CROPSCIENCE AG, priority 2010, dated 2015).

System: Alternaria solani
Experiment: Alternaria test (tomatoes) / preventive
Assay type: in vivo, Alternaria solani on tomatoes
Conditions: single active, preventive spray, evaluated 3 days after inoculation
Excerpt: The expected activity for a given combination of two active compounds can be calculated as follows (cf. Colby, S. R., “Calculating Synergistic and Antagonistic Responses of Herbicide Combinations”, Weeds 1967, 15, 20-22): If • X is the efficacy when active compound A is applied at an application rate of m ppm (or g/ha), • Y is the efficacy when active compound B is applied at an application rate of n ppm (or g/ha), • E is the efficacy when the active compounds A and B are applied at application rates of m and n ppm (or g/ha), respectively, and then
The degree of efficacy, expressed in % is denoted. 0% means an efficacy which corresponds to that of the control while an efficacy of 100% means that no disease is observed.
If the actual fungicidal activity exceeds the calculated value, then the activity of the combination is superadditive, i.e. a synergistic effect exists. In this case, the efficacy which was actually observed must be greater than the value for the expected efficacy (E) calculated from the abovementioned formula.
To produce a suitable preparation of active compound, 1 part by weight of active compound is mixed with the stated amounts of solvent and emulsifier, and the concentrate is diluted with water to the desired concentration. To test for preventive activity, young plants are sprayed with the preparation of active compound at the stated rate of application. After the spray coating has dried on, the plants are inoculated with an aqueous spore suspension of Alternaria solani. The plants are then placed in an incubation cabinet at approximately 20° C. and a relative atmospheric humidity of 100%. The test is evaluated 3 days after the inoculation. 0% means an efficacy which corresponds to that of the untreated control while an efficacy of 100% means that no disease is observed.

Row | SMILES | Efficacy in % found (application rate 0.5 ppm a.i.) [%] | Efficacy in % found (application rate 1 ppm a.i.) [%] | Efficacy in % found (application rate 2 ppm a.i.) [%] | Efficacy in % found (application rate 0.25 ppm a.i.) [%]
1 | Fc1ccc([C@]2(Cn3cncn3)O[C@H]2c2ccccc2Cl)cc1 (racemic) [Epoxiconazole, epoxiconazole] | 41 | 53 | 59 | –
2 | OC(Cc1ccccc1Cl)(Cn1[nH]cnc1=S)C1(Cl)CC1 (stereo not drawn) [(A) Prothioconazole, 2-[2-(1-chlorocyclopropyl)-3-(2-chlorophenyl)-2-hydroxypropyl]-1,2-dihydro-3H-1,2,4-triazole-3-thione] | 0 | 18 | 41 | –
3 | Cn1cc(C(=O)Nc2ccccc2-c2cc(F)c(F)c(F)c2)c(C(F)F)n1 [(B) Fluxapyroxad, 3-(difluoromethyl)-1-methyl-N-(3′,4′,5′-trifluorobiphenyl-2-yl)pyrazole-4-carboxamide] | 65 | 87 | – | 62
